These results are taken from US12605382B2, “Pharmaceutical composition for preventing, alleviating, or treating cancer containing 2,6-dichloro-4-(4-(4-hydroxycyclohexylamino)-7H- pyrrolo[2,3-d]pyrimidin-5-yl)phenol as active ingredient” (JBKLAB CO., LTD., priority 2021, dated 2026).

Test [1] relates to BRD4. As to the kind of experiment: Western blotting of tumor tissue from MDA-MB-231 tumor-bearing mice. It counts as in vivo, BALB/c-nude mice. As to conditions: 5, 10 and 20 mg/kg (T4, T5, T6), once by intravenous injection. The procedure: (§1) An experiment was performed to confirm the inhibitory effect of the compound of Example 1, the active ingredient of the pharmaceutical composition of the present invention, on the expression of major proteins on cancer cell growth through Western blotting.
(§2) Specifically, MDA-MB-231 cells, a TNBC cell line, were cultured in a 37° C., 5% CO2 incubator, and the medium used for cell culture was RPMI-1640 supplemented with 10% FBS. Tumors were induced by subcutaneously injecting 5×10^6/head/100 μl of MDA-MB-231 cells into the right neck of BALB/c-nude mice (5 mice each in control and administration groups), and the experiment was performed when the tumor size reached 200 mm^3. The compound of Example 1, the active ingredient of the pharmaceutical composition of the present invention, was administered once by intravenous injection at concentrations of 5, 10, and 20 mg/kg (T4, T5, and T6) and then euthanized using CO2, and the resulting tumor tissues from the control and administration groups were taken and subjected to Western blotting. Proteins were isolated from the tumor tissues and the results of Western blotting were confirmed using BRD4, c-myc, PD-L1, and Actin antibodies, respectively.

The subject of test [2] is PD-L1. The description is as above. The class given is in vivo, BALB/c-nude mice. The settings on record: 5, 10 and 20 mg/kg (T4, T5, T6), once by intravenous injection. Here is the method:
as §1, §2

The subject of test [3] is c-myc. The test is described as above. The class given is in vivo, BALB/c-nude mice. The settings on record: 5, 10 and 20 mg/kg (T4, T5, T6), once by intravenous injection. Here is the method:
as §1, §2

In test [4] the test system is Huh-7. As to the kind of experiment: Cell viability alone and in combination with sorafenib. It counts as cell-based, Human. The procedure:
(§3) Human liver cancer cell lines (SK Hep1 and Huh-7) were treated with control (no treatment), 0.1 μM of the compound of Example 1, 1 μM of sorafenib, and 0.1 μM of the compound of Example 1/1 μM of sorafenib, and the cell viability of SK Hep1 and Huh-7 was confirmed.

The subject of test [5] is SK Hep1. The description is as above. It counts as cell-based, Human. The procedure: as §3
The mark [6] stands for this setting: 0.1 μM Example 1 combined with 1 μM sorafenib.

For the compound `Oc1c(Cl)cc(-c2c[nH]c3ncnc(N[C@H]4CC[C@H](O)CC4)c23)cc1Cl` [Example 1, (trans)-2,6-dichloro-4-(4-(4-hydroxycyclohexylamino)-7H-pyrrolo[2,3-d]pyrimidin-5-yl)phenol], the “expression of BRD4 in tumor tissue vs untreated negative control (NC)” value in test [1] is “reduced”. Moreover, in test [2], the “expression of PD-L1 in tumor tissue vs untreated negative control (NC)” value is reported as “reduced”. Further, in test [3], the “expression of c-myc in tumor tissue vs untreated negative control (NC)” value was “reduced”. Further, the cell viability entry is “further inhibited (synergistic effect)” in test [4] (setting [6]), “suppressed” in test [4] (0.1 μM alone), “further inhibited (synergistic effect)” in test [5] (setting [6]) and “suppressed” in test [5] (0.1 μM alone).
